Test results as given in patent US4950792A, “Substituted p,p'-methylene-bis-anilines” (Lonza Ltd., priority 1985, dated 1990).

Columns and labels:
[1] = thermal stability: exotherm on heating; assay type: physicochemical; conditions: for time after which an exotherm could be determined / exotherm of the product: 350° C.
Description: Further, it was possible to establish that the compounds according to the invention are extremely temperature-stable. Thus, most of such compounds could be heated to 350° C. (comparison of MOCA around 200° C.) without the occurrence of an exotherm. The maximum possible working temperature with the new compounds consequently is substantially higher than with the usual chain-lengthening agents (comparison with MOCA, 140° C.). If this temperature is not used, at least the safe, decomposition-free working temperature range is substantially greater than the prior art compounds.

[2] = prior art; cited from earlier work

## CC(C)c1cc(Cc2cc(C(C)C)c(N)c(C(C)C)c2Cl)c(Cl)c(C(C)C)c1N [Example 4, 4,4'-Methylene-bis(3-chloro-2,6-diisopropylaniline)]
[1]
  time after which an exotherm could be determined: 3 h

## CCC(C)c1cc(Cc2cc(C(C)CC)c(N)c(C(C)CC)c2Cl)c(Cl)c(C(C)CC)c1N (stereo not drawn) [Amine IX, 4,4'-Methylene-bis-(3-chloro-2,6-di-sec-butylaniline)]
[1]; over 8 hours
  exotherm of the product: No exotherm

## CCC(C)c1cc(Cc2cc(C(C)CC)c(N)c(C)c2Cl)c(Cl)c(C)c1N (stereo not drawn) [Example 9, 4,4'-Methylene-bis(3-chloro-2-methyl-6-sec-butylaniline)]
[1]
  time after which an exotherm could be determined: 2 h

## Nc1ccc(Cc2ccc(N)c(Cl)c2)cc1Cl [Amine I, 4,4'-methylene-bis(2-chloroaniline), reference compound]
[2]
  carcinogenicity: carcinogenicity
[1]; comparison with MOCA
  temperature to which compound could be heated without the occurrence of an exotherm: around 200 °C

## Cc1cc(Cc2cc(C)c(N)c(C(C)C)c2Cl)c(Cl)c(C(C)C)c1N [Amine VII, 4,4'-Methylene-bis-(5-chloro-2-methyl-6-isopropylaniline)]
[1]
  temperature up to which no exotherm could be determined: > 320 °C

## CCc1c(N)c(C)cc(Cc2cc(C)c(N)c(CC)c2Cl)c1Cl [Example 2, 4,4'-Methylene-bis-(5-chloro-2-methyl-6-ethylaniline)]
[1]; over 8 hours
  exotherm of the product: No exotherm

## CCc1cc(Cc2cc(CC)c(N)c(CC)c2Cl)c(Cl)c(CC)c1N [Amine V, 4,4'-Methylene-bis-(3-chloro-2,6-diethylaniline)]
[1]; over 8 hours
  exotherm of the product: No exotherm

## Cc1c(N)c(C(C)C)cc(Cc2cc(C(C)C)c(N)c(C)c2Cl)c1Cl [Amine VIII, 4,4'-Methylene-bis(3-chloro-2-methyl-6-isopropylaniline)]
[1]; over 8 hours
  exotherm of the product: No exotherm

## CCc1c(N)c(Cl)cc(Cc2cc(Cl)c(N)c(CC)c2Cl)c1Cl [Amine IV, 4,4'-Methylene-bis(2,5-dichloro-6-ethylaniline)]
[1]; time not stated
  exotherm of the product: An exotherm

## CCC(C)c1c(N)c(C)cc(Cc2cc(C)c(N)c(C(C)CC)c2Cl)c1Cl (stereo not drawn) [Amine X, 4,4'-Methylene-bis(5-chloro-2-methyl-6-sec-butylaniline)]
[1]
  temperature up to which no exotherm could be determined: > 340 °C

## CCc1cc(Cc2cc(CC)c(N)c(C)c2Cl)c(Cl)c(C)c1N [Amine VI, 4,4'-Methylene-bis-(3-chloro-2-methyl-6-ethylaniline)]
[1]; over 8 hours
  exotherm of the product: No exotherm
